Data reported in patent US20250092056A1, “URACIL DERIVATIVES HAVING VIRUS REPLICATION INHIBITORY ACTIVITY AND PHARMACEUTICAL COMPOSITION COMPRISING THE SAME” (Shionogi & Co., Ltd., priority 2022, published 2025).
pEC50, pIC50: −log10 of the molar value.

Experiments:
[1] = molecular target: Recombinant SARS-CoV-2 3CL Protease (Severe acute respiratory syndrome coronavirus 2 (2019-nCoV) (SARS-CoV-2), UniProt P0DTD1); assay: biochemical; assay type: biochemical; conditions: 50% SARS-CoV-2 3CL protease inhibitory concentration; read-out: IC50
SARS-CoV-2 = assay: Cytopathic effect (CPE) suppression effect confirmation test using HEK293T/ACE2-TMPRSS2 cells; assay type: cell-based; conditions: Severe acute respiratory syndrome coronavirus 2, HEK-293T; 50% SARS-CoV-2 infected cell death inhibitory concentration; HEK293T/ACE2-TMPRSS2 cells; read-out: EC50

Compound	pIC50 [1]	pEC50 (SARS-CoV-2)
CCOC1CN(c2c(-c3ccc(F)c(Cl)c3)c(=O)n(-c3cncc(C(F)F)n3)c(=O)n2CC#N)C1 [Compound I-418]	> 8.00	> 7.00
N#CCn1c(N2CC(OC(F)F)C2)c(-c2ccc(F)c(Cl)c2)c(=O)n(-c2cncc(OCF)n2)c1=O [Compound I-420]	> 8.00	> 7.00
N#CCn1c(N2CC(C(F)(F)F)C2)c(-c2ccc(F)c(Cl)c2)c(=O)n(-c2cncc(OCF)n2)c1=O [Compound I-421]	> 8.00	> 7.00
N#CCn1c(N2CCC(C(F)F)CC2)c(-c2ccc(F)c(Cl)c2)c(=O)n(-c2cncc(OCF)n2)c1=O [Compound I-422]	> 8.00	> 7.00
N#CCn1c(CCC2(O)CCC2)c(-c2ccc(F)c(C(F)F)c2)c(=O)n(-c2cncc(C#N)c2)c1=O [Compound I-424]	> 8.00	> 7.00
N#CCn1c(CCC2(O)CCC2)c(-c2ccc(F)c(C(F)F)c2)c(=O)n(-c2cncc(Cl)c2)c1=O [Compound I-425]	> 8.00	> 7.00
N#CCn1c(N2CC3(C2)CC(F)(F)C3)c(-c2ccc(F)c(Cl)c2)c(=O)n(-c2cc(Cl)c[n+]([O-])c2)c1=O [Compound I-426]	> 8.00	> 7.00
COCc1c(-c2ccc(F)c(Cl)c2)c(=O)n(-c2cncc(Cl)c2)c(=O)n1CC#N [Compound I-435]	7.00 to 8.00	> 7.00
N#CCn1c(CCC2(O)CCC2)c(-c2ccc(F)c(F)c2)c(=O)n(-c2cncc(Cl)c2)c1=O [Compound I-436]	> 8.00	> 7.00
N#CCn1c(N2CC(OC(F)F)C2)c(-c2ccc(F)c(Cl)c2)c(=O)n(-c2cncc(C#N)c2)c1=O [Compound I-437]	> 8.00	> 7.00
C#CCn1c(C)c(-c2ccc(F)c(Cl)c2)c(=O)n(-c2cncc(Cl)c2)c1=O [Compound I-438]	> 8.00	> 7.00
N#CCn1c(N2CC(O)(c3ncccn3)C2)c(-c2ccc(F)c(C(F)F)c2)c(=O)n(-c2cncc(C#N)c2)c1=O [Compound I-439]	> 8.00	> 7.00
C#CCn1c(CC(C)(C)F)c(-c2ccc(F)c(Cl)c2)c(=O)n(-c2cncc(Cl)c2)c1=O [Compound I-440]	> 8.00	> 7.00
Cc1c(-c2ccc(F)c(Cl)c2)c(=O)n(-c2cncc(Cl)c2)c(=O)n1CC(N)=O [Compound I-441]	7.00 to 8.00	> 7.00
CC(=O)Cn1c(C)c(-c2ccc(F)c(Cl)c2)c(=O)n(-c2cncc(Cl)c2)c1=O [Compound I-442]	7.00 to 8.00	> 7.00
Cc1c(-c2ccc(F)c(Cl)c2)c(=O)n(-c2cncc(Cl)c2)c(=O)n1CC(=O)CO [Compound I-443]	< 7.00	6.00 to 7.00
CC(=O)OCC(=O)Cn1c(C)c(-c2ccc(F)c(Cl)c2)c(=O)n(-c2cncc(Cl)c2)c1=O [Compound I-444]	< 7.00	6.00 to 7.00
